Earlier results, collected in US7601427B2, “Curable composition, cured film, antireflection film, polarizing plate and liquid crystal display” (Fujifilm Corporation, priority 2005, dated 2009).

Settings: pKa of conjugate acid, aqueous solution, from Kagaku Binran

CN(C)CCO [b-17, N,N′-Dimethyl-2-aminoethanol]
pKa: 9.5
